Results as given in PMC7439413 (Science Advances, 2020).

Legend:
GRwt-ligand-TIF2 complex = test: CPMG relaxation dispersion NMR, GRwt-ligand-TIF2; set-up: species or system human; conditions: M752 13C CPMG, semiquantitative interpretation, 298 K
[1] = test system: GRwt LBD-ligand complex / TIF2 peptide; test: SPR: binding of GRwt-ligand complexes to immobilized TIF2 peptide; set-up: species or system human; conditions: stated for both TIF2 and PRGC1
human GR = biological target: T1, human GR (Homo sapiens, UniProt P04150); test: GR reporter gene assay; type: cell-based; conditions: transactivation reporter gene assay, comparison among steroid ligands
T1 sequence (P04150 1-777): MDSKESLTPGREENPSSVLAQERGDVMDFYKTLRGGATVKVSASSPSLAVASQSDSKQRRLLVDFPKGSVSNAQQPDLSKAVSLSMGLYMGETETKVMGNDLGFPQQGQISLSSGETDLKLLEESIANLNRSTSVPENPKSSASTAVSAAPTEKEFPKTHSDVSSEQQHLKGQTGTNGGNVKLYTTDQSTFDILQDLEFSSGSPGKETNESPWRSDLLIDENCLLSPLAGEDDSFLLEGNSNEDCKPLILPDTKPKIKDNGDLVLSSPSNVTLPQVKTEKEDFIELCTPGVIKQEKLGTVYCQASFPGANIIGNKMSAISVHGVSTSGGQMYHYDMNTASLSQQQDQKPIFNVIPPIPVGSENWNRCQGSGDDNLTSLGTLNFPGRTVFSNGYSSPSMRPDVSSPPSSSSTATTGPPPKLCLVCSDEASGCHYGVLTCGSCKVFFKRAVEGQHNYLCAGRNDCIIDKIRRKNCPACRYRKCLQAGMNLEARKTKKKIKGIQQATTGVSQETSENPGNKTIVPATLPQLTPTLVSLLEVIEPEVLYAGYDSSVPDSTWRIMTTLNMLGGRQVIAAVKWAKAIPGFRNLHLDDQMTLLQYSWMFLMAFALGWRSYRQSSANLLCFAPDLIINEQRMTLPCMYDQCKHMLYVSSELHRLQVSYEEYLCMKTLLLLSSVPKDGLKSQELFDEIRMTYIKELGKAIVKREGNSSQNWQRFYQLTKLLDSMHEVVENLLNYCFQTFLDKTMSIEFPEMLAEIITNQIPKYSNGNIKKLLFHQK

[2] = test system: GRF602S-ligand-TIF2 complex; test: CPMG relaxation dispersion NMR, GRF602S-ligand-TIF2; set-up: species or system human; conditions: GRF602S-dex-TIF2; 13C CPMG, 14.1 and 18.8 T, 298 K
[3] = test system: GRwt-ligand-PRGC1 complex; test: CPMG relaxation dispersion NMR, GRwt-ligand-PRGC1; set-up: species or system human; conditions: GRwt-dex-PRGC1; 13C CPMG, 18.8 T, 298 K
[4] = biological target: GRwt LBD-ligand complex / PRGC1 peptide (Homo sapiens, UniProt P04150); test: SPR: binding of GRwt-ligand complexes to immobilized PRGC1 peptide; conditions: both GR constructs (GRwt and GRF602S), irrespective of ligand

C[C@]12C=CC(=O)C=C1CC[C@@H]1[C@@H]2[C@@H](O)C[C@@]2(C)[C@H]1C[C@H]1O[C@@H](C3CCCCC3)O[C@]12C(=O)CO [dibC, desisobutyryl-ciclesonide]
population ratio of helix 12 conformations, pm/pM (GRwt-ligand-TIF2 complex): 0.1 | coregulator-binding affinity rank of GRwt-ligand complex in words [1]: highest affinity for coregulator peptides | Agonist potency/efficacy in words (human GR): partial agonist, dibC binds GR with high potency

C[C@@H]1C[C@H]2[C@@H]3CCC4=CC(=O)C=C[C@]4(C)[C@@]3(F)[C@@H](O)C[C@]2(C)[C@@]1(O)C(=O)CO [dex, dexamethasone]
M565 relaxation dispersion in words [2]: shows relaxation dispersion in the GRF602S-dex-TIF2 complex, albeit of much lower amplitude | M752 relaxation dispersion in words [2]: marked relaxation dispersion profile | M565 relaxation dispersion in words [3]: does not show any dispersion

C[C@]12CCC(=O)C=C1CC[C@@H]1[C@@H]2[C@@H](O)C[C@@]2(C)[C@H]1CC[C@]2(O)C(=O)CO [cortisol]
coregulator-binding affinity rank of GRwt-ligand complex in words [1]: weakest affinity in both cases

PPQEAEEPSLLKKLLLAPANT [PRGC1]
affinity of GR constructs for coregulator in words [4]: higher affinity for PRGC1 than for TIF2
